Laboratory results as given in patent publication US12097212B2, “Use of cationic steroidal antimicrobial compounds to deactivate coronavirus” (Brigham Young University, priority 2020, dated 2024).
Where two headings read alike, the source gives them in different places. Marks after values point to notes of the source that are not given here.

System: SARS-CoV-2
Format: cell-based
Conditions: 30-minute contact time at 22 ± 2° C.; for Virus (CCID50/0.1 mL): average of 3 replicates ± standard deviation; for LRV (log reduction value): compared to the virus control

Row | SMILES | Virus (CCID50/0.1 mL) (1 μg/mL) | LRV (log reduction value) (1 μg/mL) | Virus (CCID50/0.1 mL) (5 μg/mL) | LRV (log reduction value) (5 μg/mL) | Virus (CCID50/0.1 mL) (25 μg/mL) | LRV (log reduction value) (25 μg/mL) | Virus (CCID50/0.1 mL) (100 μg/mL) | LRV (log reduction value) (100 μg/mL) | Virus (CCID50/0.1 mL) (35%) | LRV (log reduction value) (35%)
1 | CCCCCCCCOC(=O)CC[C@@H](C)[C@H]1CC[C@H]2[C@@H]3[C@H](OC(=O)CCN)C[C@@H]4C[C@H](OC(=O)CCN)CC[C@]4(C)[C@H]3C[C@H](OC(=O)CCN)[C@]12C [CSA-44HC1] | 4.4 ± 0.12 CCID50/0.1 mL | 0 log10 | 3.9 ± 0.17 CCID50/0.1 mL | 0.5 log10 | 0.8 ± 0.19 CCID50/0.1 mL | 3.6 log10 | 1.2 ± 0.94 CCID50/0.1 mL | 3.2 log10 |  | 
2 | CCCCCCCCCCCCNCCC[C@@H](C)[C@H]1CC[C@H]2[C@@H]3[C@H](OCCCN)C[C@@H]4C[C@H](OCCCN)CC[C@]4(C)[C@H]3C[C@H](OCCCN)[C@]12C.Cl.Cl.Cl.Cl [CSA-131HC1] | 4.1 ± 0.40 CCID50/0.1 mL | 0.3 log10 | 4.1 ± 0.17 CCID50/0.1 mL | 0.3 log10 | 1.2 ± 0.54 CCID50/0.1 mL | 3.2 log10 | <1.7**** CCID50/0.1 mL | >2.7 log10 |  | 
3 | CCO [Ethanol, reference compound] |  |  |  |  |  |  |  |  | 0.8 ± 0.23 CCID50/0.1 mL | 3.6 log10
